From ChEMBL document CHEMBL3112404, “Click chemistry inspired facile synthesis and bioevaluation of novel triazolyl analogs of Ludartin” (Bioorg Med Chem Lett, 2014) come the findings set out here.

In assay [1] the test system is MCF7. Nature of the assay: Cytotoxicity against human MCF7 cells assessed as growth inhibition at 50 uM by colorimetric sulphorhodamine B assay. It is filed as functional. The note with it: read-out: GI. (In general: The SRB assay estimates cell density from bound dye.)
The subject of assay [2] is HCT-116. Nature of the assay: Cytotoxicity against human HCT116 cells assessed as growth inhibition at 50 uM by colorimetric sulphorhodamine B assay. It counts as functional. The note with it: read-out: GI.
For assay [3], the system named is PC-3. The experiment in a line: Cytotoxicity against human PC3 cells assessed as growth inhibition at 50 uM by colorimetric sulphorhodamine B assay. It is filed as functional. The note with it: read-out: GI.
The test system of assay [4] is A549. The experiment in a line: Cytotoxicity against human A549 cells assessed as growth inhibition at 50 uM by colorimetric sulphorhodamine B assay. The note with it: read-out: GI. It counts as functional.
Assay [5] relates to T98G. The experiment in a line: Cytotoxicity against human T98G cells assessed as growth inhibition at 50 uM by colorimetric sulphorhodamine B assay. The note with it: read-out: GI. It is filed as functional.
Assay [6] relates to MCF7. Nature of the assay: Cytotoxicity against human MCF7 cells assessed as growth inhibition by colorimetric sulphorhodamine B assay. It counts as functional, cell-based.
The subject of assay [7] is HCT-116. The experiment in a line: Cytotoxicity against human HCT116 cells assessed as growth inhibition by colorimetric sulphorhodamine B assay. It counts as functional, cell-based.
Assay [8] deals with PC-3. The experiment in a line: Cytotoxicity against human PC3 cells assessed as growth inhibition by colorimetric sulphorhodamine B assay. It is filed as functional, cell-based.
For assay [9], the system named is A549. The experiment in a line: Cytotoxicity against human A549 cells assessed as growth inhibition by colorimetric sulphorhodamine B assay. It counts as functional, cell-based.
For assay [10], the system named is T98G. The experiment in a line: Cytotoxicity against human T98G cells assessed as growth inhibition by colorimetric sulphorhodamine B assay. It is filed as functional, cell-based.

As usually defined, the IC50 is the concentration needed to halve the response being measured.

`CC1=C2C[C@H]3O[C@@]3(C)[C@@H]2[C@H]2OC(=O)[C@@H](CNCc3cn(-c4ccccc4[N+](=O)[O-])nn3)[C@@H]2CC1`: the inhibition of growth at 50 µM with MCF7 [1] came out at 0%; in the assay on HCT-116 [2] it was 0%; in the assay on PC-3 [3] it was 0%; in the assay with A549 [4] it was 17%; in the assay with T98G [5], 0%.

`CC1=C2C[C@H]3O[C@@]3(C)[C@@H]2[C@H]2OC(=O)[C@@H](CNCc3cn(-c4ccccc4)nn3)[C@@H]2CC1`: the IC50 in the assay with MCF7 [6] worked out at 21 µM; with HCT-116 [7] it was 37 µM; with PC-3 [8], 54 µM; in the assay on A549 [9], 24 µM; with T98G [10], 21 µM. Besides, the inhibition of growth at 50 µM in the assay on MCF7 [1] is 77%; in the assay on HCT-116 [2], 58%; with PC-3 [3], 56%; in the assay with A549 [4], 77%; in the assay on T98G [5], 73%.

For the molecule `COc1cccc(-n2cc(CNC[C@@H]3C(=O)O[C@H]4[C@H]3CCC(C)=C3C[C@H]5O[C@@]5(C)[C@@H]34)nn2)c1`, the inhibition of growth at 50 µM turned out to be 6% in the assay with MCF7 [1]; 0% in the assay with HCT-116 [2]; 0% with PC-3 [3]; 8% in the assay with A549 [4]; 0% with T98G [5].

Turning to `CC1=C2C[C@H]3O[C@@]3(C)[C@@H]2[C@H]2OC(=O)[C@@H](CNCc3cn(-c4ccc(Br)cc4)nn3)[C@@H]2CC1`, the IC50 is 32 µM with MCF7 [6], 35 µM in the assay on HCT-116 [7], 39 µM with A549 [9] and 52 µM with T98G [10]. For the same molecule, the inhibition of growth at 50 µM in the assay with MCF7 [1] amounted to 79%; with HCT-116 [2] it was 72%; with PC-3 [3] it was 28%; in the assay on A549 [4], 74%; in the assay with T98G [5], 58%.

With `CC1=C2C[C@H]3O[C@@]3(C)[C@@H]2[C@H]2OC(=O)[C@@H](CNCc3cn(-c4ccccc4C#N)nn3)[C@@H]2CC1`, the inhibition of growth at 50 µM with MCF7 [1] is 12%; in the assay with HCT-116 [2], 20%; with PC-3 [3] it was 22%; in the assay with A549 [4] it was 46%; with T98G [5], 42%.

In the case of `CC1=C2C[C@H]3O[C@@]3(C)[C@@H]2[C@H]2OC(=O)[C@@H](CNCc3cn(-c4ccccc4Cl)nn3)[C@@H]2CC1`, the inhibition of growth at 50 µM with MCF7 [1] turned out to be 12%; in the assay with HCT-116 [2] it was 6%; in the assay with PC-3 [3] it was 28%; with A549 [4], 32%; with T98G [5], 37%.

`CC1=C2C[C@H]3O[C@@]3(C)[C@@H]2[C@H]2OC(=O)[C@@H](CNCc3cn(-c4cccc(CO)c4)nn3)[C@@H]2CC1`: the inhibition of growth at 50 µM in the assay on MCF7 [1] worked out at 13%; in the assay on HCT-116 [2], 11%; in the assay on PC-3 [3], 0%; in the assay with A549 [4], 47%; in the assay with T98G [5], 0%.

Consider `C=C1C(=O)O[C@H]2[C@H]1CCC(C)=C1C[C@H]3O[C@@]3(C)[C@@H]12` [LUDARTIN], for which the values for the IC50 with MCF7 [6] and with T98G [10] were 0.5 µM and 6.3 µM, respectively. The inhibition of growth at 50 µM in the assay on MCF7 [1] turned out to be 100%; in the assay with HCT-116 [2] it was 97%; in the assay on PC-3 [3] it was 97%; with A549 [4], 97%; with T98G [5], 97%.

Turning to `COc1ccccc1-n1cc(CNC[C@@H]2C(=O)O[C@H]3[C@H]2CCC(C)=C2C[C@H]4O[C@@]4(C)[C@@H]23)nn1`, the inhibition of growth at 50 µM in the assay with MCF7 [1] turned out to be 0%; in the assay on HCT-116 [2] it was 38%; with PC-3 [3], 40%; with A549 [4] it was 21%; in the assay on T98G [5] it was 34%.

`CC1=C2C[C@H]3O[C@@]3(C)[C@@H]2[C@H]2OC(=O)[C@@H](CNCc3cn(-c4cccc(C#N)c4)nn3)[C@@H]2CC1`: the inhibition of growth at 50 µM in the assay with MCF7 [1] amounted to 0%; in the assay with HCT-116 [2] it was 0%; in the assay on PC-3 [3], 0%; with A549 [4], 10%; with T98G [5], 0%.

Take `CC1=C2C[C@H]3O[C@@]3(C)[C@@H]2[C@H]2OC(=O)[C@@H](CNCc3cn(-c4ccc(F)cc4F)nn3)[C@@H]2CC1`: the inhibition of growth at 50 µM came to 29% with MCF7 [1]; 0% with HCT-116 [2]; 21% in the assay with PC-3 [3]; 19% in the assay with A549 [4]; 12% in the assay on T98G [5].

As for `CC1=C2C[C@H]3O[C@@]3(C)[C@@H]2[C@H]2OC(=O)[C@@H](CNCc3cn(-c4ccccc4Br)nn3)[C@@H]2CC1`, the inhibition of growth at 50 µM in the assay with MCF7 [1] is 22%; in the assay with HCT-116 [2], 79%; in the assay with PC-3 [3], 0%; in the assay on A549 [4], 68%; in the assay with T98G [5], 17%. Also, the IC50 was determined as 26 µM in the assay with HCT-116 [7] and 24 µM in the assay with A549 [9].

Turning to `CC1=C2C[C@H]3O[C@@]3(C)[C@@H]2[C@H]2OC(=O)[C@@H](CNCc3cn(-c4cccc([N+](=O)[O-])c4)nn3)[C@@H]2CC1`, the inhibition of growth at 50 µM with MCF7 [1], with HCT-116 [2], in the assay with PC-3 [3], with A549 [4] and in the assay on T98G [5] was 0% in each case.

Take `CC1=C2C[C@H]3O[C@@]3(C)[C@@H]2[C@H]2OC(=O)[C@@H](CNCc3cn(-c4ccc(C)c(C)c4)nn3)[C@@H]2CC1`: the IC50 stood at 8.5 µM in the assay on MCF7 [6]; 39 µM in the assay with HCT-116 [7]; 38 µM in the assay on PC-3 [8]; 11 µM with A549 [9]; 12 µM with T98G [10]. Moreover, the inhibition of growth at 50 µM was 84% with MCF7 [1]; 49% in the assay on HCT-116 [2]; 46% in the assay with PC-3 [3]; 73% in the assay with A549 [4]; 99% in the assay on T98G [5].

Take `CC1=C2C[C@H]3O[C@@]3(C)[C@@H]2[C@H]2OC(=O)[C@@H](CNCc3cn(-c4ccc(C#N)cc4)nn3)[C@@H]2CC1`: the inhibition of growth at 50 µM with MCF7 [1], in the assay on HCT-116 [2], with PC-3 [3], in the assay on A549 [4] and in the assay with T98G [5] was 0% in each case.

For `CC1=C2C[C@H]3O[C@@]3(C)[C@@H]2[C@H]2OC(=O)[C@@H](CNCc3cn(-c4ccc([N+](=O)[O-])cc4)nn3)[C@@H]2CC1`, the inhibition of growth at 50 µM in the assay on MCF7 [1] is 0%; in the assay on HCT-116 [2], 0%; with PC-3 [3] it was 0%; with A549 [4], 26%; in the assay on T98G [5], 0%.

For the molecule `CC1=C2C[C@H]3O[C@@]3(C)[C@@H]2[C@H]2OC(=O)[C@@H](CNCc3cn(-c4cccc5ccccc45)nn3)[C@@H]2CC1`, the inhibition of growth at 50 µM is 0% in the assay on MCF7 [1]; 48% in the assay with HCT-116 [2]; 8% in the assay with PC-3 [3]; 21% in the assay on A549 [4]; 32% with T98G [5].

On to `COc1ccc(-n2cc(CNC[C@@H]3C(=O)O[C@H]4[C@H]3CCC(C)=C3C[C@H]5O[C@@]5(C)[C@@H]34)nn2)cc1`, for which the inhibition of growth at 50 µM with MCF7 [1] was 0%; in the assay on HCT-116 [2], 0%; with PC-3 [3], 0%; in the assay with A549 [4], 20%; in the assay on T98G [5], 0%.

Regarding `CC1=C2C[C@H]3O[C@@]3(C)[C@@H]2[C@H]2OC(=O)[C@@H](CNCc3cn(-c4cc(Cl)c(Cl)cc4Cl)nn3)[C@@H]2CC1`, the IC50 was found to be 12 µM in the assay with MCF7 [6]; 18 µM in the assay on HCT-116 [7]; 11 µM in the assay on PC-3 [8]; 21 µM with A549 [9]; 17 µM with T98G [10]. Moreover, the inhibition of growth at 50 µM with MCF7 [1] was determined as 81%; in the assay on HCT-116 [2], 74%; in the assay on PC-3 [3] it was 73%; in the assay on A549 [4], 91%; in the assay on T98G [5] it was 77%.
